The term IC50 denotes the concentration that gives 50% inhibition. For orientation: Ki means a measure of affinity in units of concentration, obtained from inhibition or displacement.

This note sets out measurements from ChEMBL document CHEMBL1909046, “DrugMatrix in vitro pharmacology data”.

One assay deals with Melanocortin receptor 4 (Homo sapiens, UniProt P32245). The format is cell membranes, HEK293, Membrane. The following applies: hek293.
Chain of Melanocortin receptor 4 (P32245 whole entry): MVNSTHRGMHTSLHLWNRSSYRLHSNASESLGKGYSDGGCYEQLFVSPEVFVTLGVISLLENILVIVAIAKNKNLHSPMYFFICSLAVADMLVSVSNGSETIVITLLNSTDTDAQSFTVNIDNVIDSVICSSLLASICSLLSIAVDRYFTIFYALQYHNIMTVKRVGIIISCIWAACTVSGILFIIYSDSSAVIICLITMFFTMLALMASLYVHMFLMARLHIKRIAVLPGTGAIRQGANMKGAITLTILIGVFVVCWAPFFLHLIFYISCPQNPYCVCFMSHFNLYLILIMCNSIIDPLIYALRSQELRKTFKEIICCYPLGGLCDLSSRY
With `CC1(C)S[C@@H]2[C@H](NC(=O)Cc3ccccc3)C(=O)N2[C@H]1C(=O)O` [PENICILLIN G], the IC50 result is recorded as “Not Active”.

For the molecule `CCCCc1nc(Cl)c(CO)n1Cc1ccc(-c2ccccc2-c2nnn[nH]2)cc1` [LOSARTAN], the IC50 result was “Not Active”.

Take `CCCCN1CCCC[C@H]1C(=O)Nc1c(C)cccc1C` [LEVOBUPIVACAINE]: the IC50 entry is “Not Active”.

In the case of `Cc1onc(O)c1CC(N)C(=O)O` (racemic) [(R,S)-AMPA], the half-maximal inhibitory concentration (IC50) entry is given as “Not Active”.

Consider `CC1CC(OC(=O)C(O)c2ccccc2)CC(C)(C)C1` (stereo unspecified) [CYCLANDELATE], for which the IC50 result was “Not Active”.

Turning to `COCCc1ccc(OCC(O)CNC(C)C)cc1` (stereo unspecified) [METOPROLOL], the IC50 entry is recorded as “Not Active”.

Consider `Cc1ccc(-c2cc(C(F)(F)F)nn2-c2ccc(S(N)(=O)=O)cc2)cc1` [CELECOXIB], for which the half-maximal inhibitory concentration (IC50) entry is listed as “Not Active”.

As for `c1ccc(Nc2ccc(Nc3ccccc3)cc2)cc1`, the IC50 result was “Not Active”.

The target of a further assay is 5-hydroxytryptamine receptor 2B (Homo sapiens, UniProt P41595). In kind it is cell membranes, CHO-K1, Membrane. Conditions: cho-k1. Also: in other assays of this panel Not Active means under 50% inhibition at 10 µM.
Chain of 5-hydroxytryptamine receptor 2B (P41595 whole entry): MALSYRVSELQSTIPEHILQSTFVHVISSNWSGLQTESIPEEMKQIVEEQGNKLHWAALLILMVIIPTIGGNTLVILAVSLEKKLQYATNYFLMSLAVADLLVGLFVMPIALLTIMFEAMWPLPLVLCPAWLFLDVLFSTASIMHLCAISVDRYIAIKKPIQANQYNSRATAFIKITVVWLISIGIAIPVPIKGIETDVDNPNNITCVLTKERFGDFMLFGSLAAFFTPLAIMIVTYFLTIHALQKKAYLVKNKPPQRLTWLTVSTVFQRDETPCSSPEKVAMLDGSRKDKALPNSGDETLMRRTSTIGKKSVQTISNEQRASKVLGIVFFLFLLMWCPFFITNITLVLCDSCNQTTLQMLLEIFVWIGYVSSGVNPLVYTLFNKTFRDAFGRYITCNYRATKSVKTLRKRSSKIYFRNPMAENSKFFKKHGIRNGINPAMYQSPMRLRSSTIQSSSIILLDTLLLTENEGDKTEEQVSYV
For the molecule `CC1(C)S[C@@H]2[C@H](NC(=O)Cc3ccccc3)C(=O)N2[C@H]1C(=O)O` [PENICILLIN G], the IC50 result is on record as “Not Active”.

As to `CCCCc1nc(Cl)c(CO)n1Cc1ccc(-c2ccccc2-c2nnn[nH]2)cc1` [LOSARTAN], the IC50 result is “Not Active”.

As for `CCCCN1CCCC[C@H]1C(=O)Nc1c(C)cccc1C` [LEVOBUPIVACAINE], the IC50 result is “Not Active”.

With `Cc1onc(O)c1CC(N)C(=O)O` (racemic) [(R,S)-AMPA], the IC50 entry is “Not Active”.

Regarding `CC1CC(OC(=O)C(O)c2ccccc2)CC(C)(C)C1` (stereo unspecified) [CYCLANDELATE], the IC50 result is reported as “Not Active”.

For the molecule `COCCc1ccc(OCC(O)CNC(C)C)cc1` (stereo unspecified) [METOPROLOL], the IC50 result is given as “Not Active”.

On to `Cc1ccc(-c2cc(C(F)(F)F)nn2-c2ccc(S(N)(=O)=O)cc2)cc1` [CELECOXIB], for which the IC50 entry is reported as “Not Active”.

Staying with this assay, now noted: read-out: IC50.
With `c1ccc(Nc2ccc(Nc3ccccc3)cc2)cc1`, the IC50 was 142 nM.

Still in this assay, the particulars now being: read-out: Ki.
Regarding `c1ccc(Nc2ccc(Nc3ccccc3)cc2)cc1`, the Ki stood at 90 nM.

Test system in another assay: not listed separately
Description: DRUGMATRIX: Calcium Channel Type L, Benzothiazepine radioligand binding (ligand: [3H] Diltiazem). In kind it is cell membranes, Rattus norvegicus, Wistar, Brain, Membrane. Conditions: Not Active = under 50% inhibition at 10 µM.
Regarding `CC1(C)S[C@@H]2[C@H](NC(=O)Cc3ccccc3)C(=O)N2[C@H]1C(=O)O` [PENICILLIN G], the IC50 entry is “Not Active” and the inhibition constant Ki result is given as “Not Active”.

Turning to `CCCCc1nc(Cl)c(CO)n1Cc1ccc(-c2ccccc2-c2nnn[nH]2)cc1` [LOSARTAN], the IC50 result is “Not Active” and the Ki result was “Not Active”.

For the molecule `CCCCN1CCCC[C@H]1C(=O)Nc1c(C)cccc1C` [LEVOBUPIVACAINE], the IC50 result is given as “Not Active” and the Ki entry is on record as “Not Active”.

In the case of `Cc1onc(O)c1CC(N)C(=O)O` (racemic) [(R,S)-AMPA], the IC50 entry is given as “Not Active” and the Ki entry is listed as “Not Active”.

Turning to `CC1CC(OC(=O)C(O)c2ccccc2)CC(C)(C)C1` (stereo unspecified) [CYCLANDELATE], the IC50 result is listed as “Not Active” and the Ki entry is given as “Not Active”.

For the molecule `COCCc1ccc(OCC(O)CNC(C)C)cc1` (stereo unspecified) [METOPROLOL], the IC50 entry is given as “Not Active” and the Ki entry is reported as “Not Active”.

On to `Cc1ccc(-c2cc(C(F)(F)F)nn2-c2ccc(S(N)(=O)=O)cc2)cc1` [CELECOXIB], for which the IC50 entry is reported as “Not Active” and the Ki entry is recorded as “Not Active”.

Take `c1ccc(Nc2ccc(Nc3ccccc3)cc2)cc1`: the IC50 entry was “Not Active” and the Ki result is on record as “Not Active”.

In a further assay the target is Mitogen-activated protein kinase 3 (Homo sapiens, UniProt P27361). The assay is described as follows: DRUGMATRIX: Protein Serine/Threonine Kinase, ERK1 enzyme inhibition (substrate: Myelin Basic Protein). The following applies: Not Active = under 50% inhibition at 10 µM. The arrangement: species or system Escherichia coli.
Chain of Mitogen-activated protein kinase 3 (P27361 whole entry): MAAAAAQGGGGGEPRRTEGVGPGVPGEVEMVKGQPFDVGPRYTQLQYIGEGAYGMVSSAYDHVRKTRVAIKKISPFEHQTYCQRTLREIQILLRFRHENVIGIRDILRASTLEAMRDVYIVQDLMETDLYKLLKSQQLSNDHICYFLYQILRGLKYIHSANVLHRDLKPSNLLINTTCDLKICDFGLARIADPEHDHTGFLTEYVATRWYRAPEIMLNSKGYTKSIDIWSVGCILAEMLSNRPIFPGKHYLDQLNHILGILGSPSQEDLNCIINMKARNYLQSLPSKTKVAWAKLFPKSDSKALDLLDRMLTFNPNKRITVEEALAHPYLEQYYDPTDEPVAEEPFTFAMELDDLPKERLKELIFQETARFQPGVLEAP
On to `CC1(C)S[C@@H]2[C@H](NC(=O)Cc3ccccc3)C(=O)N2[C@H]1C(=O)O` [PENICILLIN G], for which the IC50 result was “Not Active”.

As for `CCCCc1nc(Cl)c(CO)n1Cc1ccc(-c2ccccc2-c2nnn[nH]2)cc1` [LOSARTAN], the IC50 result is “Not Active”.

As to `CCCCN1CCCC[C@H]1C(=O)Nc1c(C)cccc1C` [LEVOBUPIVACAINE], the IC50 result is given as “Not Active”.

As to `Cc1onc(O)c1CC(N)C(=O)O` (racemic) [(R,S)-AMPA], the IC50 result is on record as “Not Active”.

With `CC1CC(OC(=O)C(O)c2ccccc2)CC(C)(C)C1` (stereo unspecified) [CYCLANDELATE], the half-inhibitory concentration (IC50) entry is recorded as “Not Active”.

Regarding `COCCc1ccc(OCC(O)CNC(C)C)cc1` (stereo unspecified) [METOPROLOL], the IC50 result is reported as “Not Active”.

With `Cc1ccc(-c2cc(C(F)(F)F)nn2-c2ccc(S(N)(=O)=O)cc2)cc1` [CELECOXIB], the IC50 result is reported as “Not Active”.

`c1ccc(Nc2ccc(Nc3ccccc3)cc2)cc1`: the IC50 entry is “Not Active”.

Test system in the next assay: not listed separately
The assay is described as follows: DRUGMATRIX: Sodium/nucleoside co-transporter radioligand binding (ligand: nitrobenzylthioinosine). The format is cell membranes, Cavia porcellus, Dunkin-Hartley, Cerebral cortex, Membrane. The following applies: Not Active = under 50% inhibition at 10 µM.
As to `CC1(C)S[C@@H]2[C@H](NC(=O)Cc3ccccc3)C(=O)N2[C@H]1C(=O)O` [PENICILLIN G], the IC50 result is given as “Not Active” and the Ki result is reported as “Not Active”.

As to `CCCCc1nc(Cl)c(CO)n1Cc1ccc(-c2ccccc2-c2nnn[nH]2)cc1` [LOSARTAN], the IC50 entry was “Not Active” and the Ki entry is given as “Not Active”.

`CCCCN1CCCC[C@H]1C(=O)Nc1c(C)cccc1C` [LEVOBUPIVACAINE]: the 50% inhibitory concentration (IC50) entry is listed as “Not Active” and the Ki result was “Not Active”.

Take `Cc1onc(O)c1CC(N)C(=O)O` (racemic) [(R,S)-AMPA]: the IC50 result is “Not Active” and the Ki result was “Not Active”.

Turning to `CC1CC(OC(=O)C(O)c2ccccc2)CC(C)(C)C1` (stereo unspecified) [CYCLANDELATE], the IC50 result is “Not Active” and the Ki entry was “Not Active”.

In the case of `COCCc1ccc(OCC(O)CNC(C)C)cc1` (stereo unspecified) [METOPROLOL], the IC50 result is “Not Active” and the Ki entry is reported as “Not Active”.

As for `Cc1ccc(-c2cc(C(F)(F)F)nn2-c2ccc(S(N)(=O)=O)cc2)cc1` [CELECOXIB], the IC50 result is reported as “Not Active” and the Ki entry was “Not Active”.

`c1ccc(Nc2ccc(Nc3ccccc3)cc2)cc1`: the IC50 result is “Not Active” and the Ki result is “Not Active”.

Test system in another assay: not listed separately
Description: DRUGMATRIX: Atrial Natriuretic Factor (ANF) radioligand binding (ligand: [125I] ANF (rat)). In kind it is cell membranes, Cavia porcellus, Dunkin-Hartley, Adrenal gland, Membrane. Conditions: Not Active = under 50% inhibition at 10 µM.
Consider `CC1(C)S[C@@H]2[C@H](NC(=O)Cc3ccccc3)C(=O)N2[C@H]1C(=O)O` [PENICILLIN G], for which the IC50 result is given as “Not Active” and the Ki result was “Not Active”.

With `CCCCc1nc(Cl)c(CO)n1Cc1ccc(-c2ccccc2-c2nnn[nH]2)cc1` [LOSARTAN], the concentration for half-maximal inhibition (IC50) entry was “Not Active” and the Ki result was “Not Active”.

Take `CCCCN1CCCC[C@H]1C(=O)Nc1c(C)cccc1C` [LEVOBUPIVACAINE]: the IC50 result was “Not Active” and the Ki result is listed as “Not Active”.

Regarding `Cc1onc(O)c1CC(N)C(=O)O` (racemic) [(R,S)-AMPA], the 50% inhibitory concentration (IC50) result is given as “Not Active” and the Ki result is “Not Active”.

With `CC1CC(OC(=O)C(O)c2ccccc2)CC(C)(C)C1` (stereo unspecified) [CYCLANDELATE], the half-inhibitory concentration (IC50) entry is on record as “Not Active” and the Ki result is on record as “Not Active”.

As to `COCCc1ccc(OCC(O)CNC(C)C)cc1` (stereo unspecified) [METOPROLOL], the IC50 entry is given as “Not Active” and the Ki entry is “Not Active”.

Take `Cc1ccc(-c2cc(C(F)(F)F)nn2-c2ccc(S(N)(=O)=O)cc2)cc1` [CELECOXIB]: the IC50 result is “Not Active” and the Ki result is on record as “Not Active”.

Turning to `c1ccc(Nc2ccc(Nc3ccccc3)cc2)cc1`, the half-maximal inhibitory concentration (IC50) result was “Not Active” and the inhibition constant Ki entry is reported as “Not Active”.

A further assay has as its target T1, Alpha-1D adrenergic receptor (Homo sapiens, UniProt P25100). Also: in other assays of this panel Not Active means under 50% inhibition at 10 µM.
T1 sequence (P25100 whole entry): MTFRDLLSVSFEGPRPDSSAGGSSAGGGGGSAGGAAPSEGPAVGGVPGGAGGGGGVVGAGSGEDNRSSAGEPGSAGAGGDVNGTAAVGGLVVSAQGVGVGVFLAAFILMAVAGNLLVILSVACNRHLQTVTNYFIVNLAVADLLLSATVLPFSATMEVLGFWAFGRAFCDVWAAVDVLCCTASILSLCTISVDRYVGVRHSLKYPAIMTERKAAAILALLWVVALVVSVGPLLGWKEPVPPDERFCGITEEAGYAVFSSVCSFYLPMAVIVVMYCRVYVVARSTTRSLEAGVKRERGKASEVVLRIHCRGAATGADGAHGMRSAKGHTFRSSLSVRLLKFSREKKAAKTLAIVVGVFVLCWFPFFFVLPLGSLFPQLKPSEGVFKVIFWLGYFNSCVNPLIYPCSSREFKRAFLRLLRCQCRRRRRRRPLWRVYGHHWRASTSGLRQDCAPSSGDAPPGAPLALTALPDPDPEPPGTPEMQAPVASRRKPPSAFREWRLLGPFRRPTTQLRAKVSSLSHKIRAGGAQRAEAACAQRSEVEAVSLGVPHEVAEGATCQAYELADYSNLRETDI
In kind it is cell membranes, HEK293, Membrane. Conditions: hek293.
In the case of `CC1(C)S[C@@H]2[C@H](NC(=O)Cc3ccccc3)C(=O)N2[C@H]1C(=O)O` [PENICILLIN G], the IC50 result is “Not Active”.

As for `CCCCc1nc(Cl)c(CO)n1Cc1ccc(-c2ccccc2-c2nnn[nH]2)cc1` [LOSARTAN], the IC50 result is recorded as “Not Active”.

In the case of `CCCCN1CCCC[C@H]1C(=O)Nc1c(C)cccc1C` [LEVOBUPIVACAINE], the IC50 entry was “Not Active”.

On to `Cc1onc(O)c1CC(N)C(=O)O` (racemic) [(R,S)-AMPA], for which the IC50 result was “Not Active”.

Turning to `CC1CC(OC(=O)C(O)c2ccccc2)CC(C)(C)C1` (stereo unspecified) [CYCLANDELATE], the IC50 entry is listed as “Not Active”.

Regarding `COCCc1ccc(OCC(O)CNC(C)C)cc1` (stereo unspecified) [METOPROLOL], the IC50 result is recorded as “Not Active”.

On to `Cc1ccc(-c2cc(C(F)(F)F)nn2-c2ccc(S(N)(=O)=O)cc2)cc1` [CELECOXIB], for which the IC50 entry is reported as “Not Active”.

Take `c1ccc(Nc2ccc(Nc3ccccc3)cc2)cc1`: the IC50 result is listed as “Not Active”.
